Test results as given in patent US20250361234A1 (NICO THERAPEUTICS, INC., priority 2022, published 2025).

Molecular target: T1, full-length SARM1 (FL-SARM1) (Homo sapiens, UniProt Q6SZW1)
T1 sequence (Q6SZW1 28-724): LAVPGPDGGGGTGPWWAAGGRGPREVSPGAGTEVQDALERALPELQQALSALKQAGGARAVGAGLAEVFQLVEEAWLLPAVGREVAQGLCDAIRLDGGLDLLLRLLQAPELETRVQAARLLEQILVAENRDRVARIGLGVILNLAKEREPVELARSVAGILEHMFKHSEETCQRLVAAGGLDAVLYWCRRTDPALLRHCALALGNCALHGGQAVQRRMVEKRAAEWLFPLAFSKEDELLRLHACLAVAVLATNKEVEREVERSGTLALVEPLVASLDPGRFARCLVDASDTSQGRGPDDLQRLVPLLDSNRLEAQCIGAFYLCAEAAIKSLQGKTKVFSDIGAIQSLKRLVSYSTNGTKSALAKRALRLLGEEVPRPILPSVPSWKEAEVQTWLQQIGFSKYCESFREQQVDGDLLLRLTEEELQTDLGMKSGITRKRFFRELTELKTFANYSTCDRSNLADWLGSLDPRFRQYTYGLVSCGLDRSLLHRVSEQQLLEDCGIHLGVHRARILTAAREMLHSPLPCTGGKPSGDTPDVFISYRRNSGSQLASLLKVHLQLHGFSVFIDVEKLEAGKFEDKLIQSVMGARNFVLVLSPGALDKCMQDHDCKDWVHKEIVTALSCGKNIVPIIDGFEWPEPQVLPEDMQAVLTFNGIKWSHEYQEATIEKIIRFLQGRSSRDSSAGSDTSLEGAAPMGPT
Assay: FL-SARM1 cellular lysate assay (NAD/NADH-Glo readout of remaining NAD+)
Details: SARM1 cellular lysate from transfected HEK293T cells, NAD+ and NMN, 11 point curve
Protocol: Preparation of full-length SARM1 (FL-SARM1) lysate: HEK293T cells (ATCC: CRL-3216) were grown on 150 mm TC-treated dishes to 80-90% confluency in complete DMEM (Thermo Fisher: 11965175) supplemented with 10% HI-FBS (VWR: 10802-772), 1× Pen/Strep (Thermo Fisher: 15140122), 1× NEAA (Thermo Fisher: 1140050), 1× glutamax (Thermo Fisher: 35050061), and 1 mM sodium pyruvate (Thermo Fisher: 11360070)) at 37° C. and 5% CO2. One hour prior to transfection, the media was replaced with fresh, 37° C. complete DMEM (20 mL per one 150 mm dish) supplemented with additional 10 mM glucose (Alfa Aesar AAJ60067EQE). Per one 150 mm dish, 30 μg FL-SARM1 (SEQ. ID. 1; cloned in-house) plasmid was dissolved in 1 mL DMEM at ambient temperature and were mixed by inverting the tube 8-10 times. 90 μL of GenJet™ in vitro DNA transfection reagent (Ver2) was dissolved in 1 mL DMEM at ambient temperature and were mixed by inverting the tube 8-10 times. The plasmid and transfection agent solutions were combined, mixed by 8-10 inversions and incubated for 10 minutes at ambient temperature. 2 mL of this transfection mixture was added to each dish containing HEK293T cells as prepared above followed by a gentle mixing of 4-5 horizontal rotations. The dishes were incubated at 37° C. and 5% CO2 for 24 h. The dishes were removed from the incubator, the medium was aspirated and the cells were scraped off using cell scrapers in ice-cold 1× PBS (5 mL/dish, Thermo Fisher Scientific 10010023). The collected cells were centrifuged at 300 g for 5 minutes at 4° C. The supernatant was aspirated and the pellet was frozen at −80° C. until needed. The cell pellet from 30 dishes was dissolved in 30 mL 1× PBS supplemented with 4 tablets of Complete, Mini EDTA-free protease inhibitor cocktail at 4° C. This mixture was sonicated on ice for 10 minutes at 50% amplitude with a 1 second on/1 second off interval using a Model 120 sonicator (Thermo Fisher Scientific, FB120110). The lysate was centrifuged at 16000 g for 10 minutes at 4° C.
To a white 384-well Proxiplate (PerkinElmer, PE-6008280) was added 50 nL/well of a DMSO solution containing test compounds followed by 7.5 mL/well of a 0.067 mg/mL solution of SARM1 cellular lysate in reaction buffer (DPBS containing CHAPSO (0.1%) and fatty acid free BSA (0.032%)). The plate was centrifuged for 1 minute at 1000 RPM and then placed in an incubator at 23° C. for 15 minutes. To the wells were added 2.5 mL/well of a solution containing 40 mM NAD^+ and 4 mM NMN in reaction buffer. The plate was centrifuged for 1 min at 1000 RPM, the plate was sealed and placed in an incubator at 23° C. for 3.5 hours before adding 3.5 mL/well of NAD/NADH-Glo™ solution (preparation as described by Promega using the extended detection protocol). The plate was centrifuged for 1 minute at 1000 RPM and then incubated at 23° C. for 20 minutes. 1 mL/well of a 3.625 mM solution of menadione in DMSO was added and the plate was centrifuged for 1 minute at 1000 RPM. […] Percent inhibition was calculated as follows:
IC50 values were calculated from an 11 point curve using ½ log dilutions using a four-parameter logistic regression curve fit.

Row | SMILES | IC50 (Activity (μM)) [µM] | IC50 (Activity) [µM]
1 | Cc1ccc(NC(=O)N2C3CCCC2C3)cc1-c1cnc(C)c(F)c1 [Example 89, N-(3-(5-fluoro-6-methylpyridin-3-yl)-4-methylphenyl)-6-azabicyclo[3.1.1]heptane-6-carboxamide] | 0.4 | 0.0001 to 1
2 | COc1c(F)cncc1-c1cc(NC(=O)N2C3CCCC2C3)ccc1C [Example 90, N-(3-(5-fluoro-4-methoxypyridin-3-yl)-4-methylphenyl)-6-azabicyclo[3.1.1]heptane-6-carboxamide] | 1.9 | 1 to 10
3 | Cc1ccncc1-c1cc(NC(=O)N2C3CCCC2C3)ccc1C [Example 91, N-(4-methyl-3-(4-methylpyridin-3-yl)phenyl)-6-azabicyclo[3.1.1]heptane-6-carboxamide] | 0.4 | 0.0001 to 1
4 | Cc1ccc(NC(=O)N2C3CCCC2C3)cc1-c1cncc(F)c1C [Example 92, N-(3-(5-fluoro-4-methylpyridin-3-yl)-4-methylphenyl)-6-azabicyclo[3.1.1]heptane-6-carboxamide] | 0.5 | 0.0001 to 1
5 | Cc1ccc(NC(=O)N2C3CCCC2(C(=O)N2CCCC2)C3)cc1-c1cncc(F)c1 (stereo not drawn) [Example 93, N-[3-(5-fluoropyridin-3-yl)-4-methylphenyl]-1-(pyrrolidine-1-carbonyl)-6-azabicyclo[3.1.1]heptane-6-carboxamide] | 4.4 | 1 to 10
6 | Cc1ccc(NC(=O)N2C3CCC2COC3)cc1-c1cncc(F)c1 [Example 94, N-[3-(5-fluoropyridin-3-yl)-4-methylphenyl]-3-oxa-8-azabicyclo[3.2.1]octane-8-carboxamide] | 2.8 | 1 to 10
7 | Cc1ccc(NC(=O)N2CC3CC2c2ccccc23)cc1-c1cncc(F)c1 (stereo not drawn) [Example 95, N-[3-(5-fluoropyridin-3-yl)-4-methylphenyl]-9-azatricyclo[6.2.1.02,7]undeca-2,4,6-triene-9-carboxamide] | 0.2 | 0.0001 to 1
8 | Cc1ccc(NC(=O)N2C3CCCC2(C#N)C3)cc1-c1cncc(F)c1 (stereo not drawn) [Example 96, 1-cyano-N-[3-(5-fluoropyridin-3-yl)-4-methylphenyl]-6-azabicyclo[3.1.1]heptane-6-carboxamide] | 0.07 | 0.0001 to 1
9 | Cc1ccc(NC(=O)N2C3CCC2CC3)cc1-c1cncc(F)c1 [Example 97, N-[3-(5-fluoropyridin-3-yl)-4-methylphenyl]-7-azabicyclo[2.2.1]heptane-7-carboxamide] | 0.4 | 0.0001 to 1
10 | Cc1nnc(C23CCCC(C2)N3C(=O)Nc2ccc(C)c(-c3cncc(F)c3)c2)o1 (stereo not drawn) [Example 98, N-[3-(5-fluoro-3-pyridyl)-4-methyl-phenyl]-1-(5-methyl-1,3,4-oxadiazol-2-yl)-6-azabicyclo[3.1.1]heptane-6-carboxamide] | 0.2 | 0.0001 to 1
11 | Cc1ccc(NC(=O)[C@H]2C[C@H](C3CC3(F)F)C2)cc1-c1cccnc1 (stereo partly drawn) [Example 99, trans-3-(2,2-difluorocyclopropyl)-N-(4-methyl-3-pyridin-3-ylphenyl)cyclobutane-1-carboxamide] | 5.1 | 1 to 10
12 | Cc1ccc(NC(=O)[C@H]2C[C@@H](C3CC3(F)F)C2)cc1-c1cccnc1 (stereo partly drawn) [Example 100, cis-3-(2,2-difluorocyclopropyl)-N-(4-methyl-3-pyridin-3-ylphenyl)cyclobutane-1-carboxamide] | 1.5 | 1 to 10
13 | Cc1ccc(NC(=O)C2C3CC2CN(CC(F)(F)F)C3)cc1-c1cncc(F)c1 (stereo not drawn) [Example 101, N-[3-(5-fluoropyridin-3-yl)-4-methylphenyl]-3-(2,2,2-trifluoroethyl)-3-azabicyclo[3.1.1]heptane-6-carboxamide] | 0.8 | 0.0001 to 1
14 | Cc1ccc(NC(=O)[C@H]2C[C@@](C#N)(C3CC3)C2)cc1-c1cncc(F)c1 [Example 106, trans-3-cyano-3-cyclopropyl-N-[3-(5-fluoropyridin-3-yl)-4-methylphenyl]cyclobutane-1-carboxamide] | 0.6 | 0.0001 to 1
15 | Cc1ccc(NC(=O)[C@H]2C[C@](C#N)(C3CC3)C2)cc1-c1cncc(F)c1 [Example 107, cis-3-cyano-3-cyclopropyl-N-[3-(5-fluoropyridin-3-yl)-4-methylphenyl]cyclobutane-1-carboxamide] | 38.9 | > 10
16 | Cc1ccc(NC(=O)[C@H]2C[C@H](C3CC3)C2)cc1-c1cncc(F)c1 [Example 108, trans-3-cyclopropyl-N-[3-(5-fluoropyridin-3-yl)-4-methylphenyl]cyclobutane-1-carboxamide] | 5.3 | 1 to 10
17 | Cc1ccc(NC(=O)[C@H]2C[C@@H](C3CC3)C2)cc1-c1cncc(F)c1 [Example 109, cis-3-cyclopropyl-N-[3-(5-fluoropyridin-3-yl)-4-methylphenyl]cyclobutane-1-carboxamide] | 0.5 | 0.0001 to 1
18 | Cc1ccc(NC(=O)[C@@H]2CC2(F)F)cc1-c1cncc(F)c1 [Example 110, (S)-2,2-difluoro-N-(3-(5-fluoropyridin-3-yl)-4-methylphenyl)cyclopropanecarboxamide] | 8.2 | 1 to 10
19 | Cc1ncc(-c2cc(NC(=O)[C@@H]3CC3(F)F)ccc2C)cn1 [Example 111, (1S)-2,2-difluoro-N-[4-methyl-3-(2-methylpyrimidin-5-yl)phenyl]cyclopropane-1-carboxamide] | 20.4 | > 10
20 | Cc1ccc(NC(=O)[C@@H]2CC2(F)F)cc1-c1cccnc1C [Example 112, (1S)-2,2-difluoro-N-[4-methyl-3-(2-methylpyridin-3-yl)phenyl]cyclopropane-1-carboxamide] | 33.3 | > 10
21 | Cc1ccc(NC(=O)[C@@H]2CC2(F)F)cc1-c1cnc(C(F)(F)F)nc1 [Example 113, (1S)-2,2-difluoro-N-[4-methyl-3-[2-(trifluoromethyl)pyrimidin-5-yl]phenyl]cyclopropane-1-carboxamide] | 34.4 | > 10
22 | Cc1ccc(NC(=O)CC2CCC2)cc1-c1cccnc1 [Example 114, 2-cyclobutyl-N-(4-methyl-3-pyridin-3-ylphenyl)acetamide] | 4.3 | 1 to 10
23 | Cc1cncc(-c2cc(NC(=O)N3C4CCCC3C4)ccc2C)c1 [Example 115, N-[4-methyl-3-(5-methylpyridin-3-yl)phenyl]-6-azabicyclo[3.1.1]heptane-6-carboxamide] | 0.1 | 0.0001 to 1
24 | Cc1ccc(NC(=O)N2C3CCCC2C3)cc1-c1cncc(C(F)(F)F)c1 [Example 116, N-[4-methyl-3-[5-(trifluoromethyl)pyridin-3-yl]phenyl]-6-azabicyclo[3.1.1]heptane-6-carboxamide] | 0.1 | 0.0001 to 1
25 | Cc1ccc(NC(=O)N2C3CCCC2C3)cc1-c1cncc(Cl)c1 [Example 117, N-[3-(5-chloro-3-pyridyl)-4-methyl-phenyl]-6-azabicyclo[3.1.1]heptane-6-carboxamide] | 0.03 | 0.0001 to 1
26 | Cc1ccc(NC(=O)CC2CCC2)cc1-c1cncnc1 [Example 118, 2-cyclobutyl-N-(4-methyl-3-pyrimidin-5-ylphenyl)acetamide] | 13.9 | > 10
27 | Cc1ccc(NC(=O)OC2CCC2)cc1-c1cncc(F)c1 [Example 126, cyclobutyl (3-(5-fluoropyridin-3-yl)-4-methylphenyl)carbamate] | 20.7 | > 10
28 | Cc1ccc(NC(=O)OC2CCC2)cc1-c1cccnc1 [Example 129, cyclobutyl N-(4-methyl-3-pyridin-3-ylphenyl)carbamate] | 30.9 | > 10
29 | Cc1ccc(NC(=O)N2C3CCCC2C3)cc1-c1cnnnc1 [Example 130] | 15.5 | > 10
30 | COc1ccc(-c2cc(NC(=O)N3[C@@H]4C[C@@H](C)C[C@H]3C4)c(F)cc2Cl)cn1 [Example 131, cis-N-[4-chloro-2-fluoro-5-(6-methoxy-3-pyridinyl)phenyl]-3-methyl-6-azabicyclo[3.1.1]heptane-6-carboxamide] | 0.7 | 0.0001 to 1
